Reference: US20250282757A1, “ARYL ETHER-SUBSTITUTED HETEROCYCLIC COMPOUNDS AS GLP1R AGONISTS” (MINDRANK AI LTD., priority 2021, published 2025)

Key:
[1] = Pharmacokinetic study in monkeys; type: in vivo, cynomolgus monkeys; settings: for half-life: read-out: T½ (converted); for Vd: read-out: Vdss; for clearance rate compared with PF-06882961 / exposure compared with PF-06882961 / half-life compared with PF-06882961: monkeys
Experimental: The pharmacokinetic properties of compounds of the present invention were evaluated in monkey pharmacokinetic experiments with 3 male Non-naive cynomolgus monkeys per group. Compounds were dissolved in 10% solutol/90% saline. For single intravenous administration, the dose was 1 mg/kg, and the administration volume was 1 mL/kg. For single intragastric administration, the dose was 5 mg/kg, and the administration volume was 1 mL/kg. Animals were fasted overnight with free water before the experiment and resumed feeding 4 hours after administration. Blood was collected at 0.0830, 0.25, 0.5, 1, 2, 4, 6, 8 and 24 hours after dosing. About 0.4 mL of whole blood was collected from the animal's forearm vein and placed in an EDTA-K2 anticoagulant tube. The samples were centrifuged at 4° C. and 4200 rpm for 5 min, and the plasma was transferred to a centrifuge tube and stored at −80° C. until analysis. For plasma sample analysis, the test compounds and internal standards (Labetalol & tolbutamide & Verapamil & dexamethasone & glyburide & Celecoxib) were extracted from monkey plasma by protein precipitation method with acetonitrile, and the extracts were analyzed by LC/MS/MS. Measured plasma concentration-time data in individual animals were analyzed using the non-compartmental model of Phoenix WinNonlin 7.0 (Pharsight, USA) software to obtain the following pharmacokinetic parameters: maximum (peak) plasma drug concentration Cmax; time to peak Tmax; Half-life T1/2 and area under the plasma concentration-time curve extrapolated to infinity AUC0-inf.

cynomolgus monkeys = assay: Intravenous glucose tolerance (IVGTT) experiment in cynomolgus monkey; type: in vivo; settings: for effect on blood glucose compared with PF-06882961: 100 mg/kg po, IVGTT
Experimental: The compounds were dissolved in 10% Solutol HS15+90% Saline by vortex ultrasound. Vehicle was 10% Solutol HS15+90% Saline.
Male cynomolgus monkeys, 10-15 years old, weighing 6-13 kg. Healthy animals were selected for efficacy studies according to alanine aminotransferase (ALT), aspartate aminotransferase (AST), triglyceride (TG), total cholesterol (TC), high density lipoprotein (HDL), low density lipoprotein (LDL), glycosylated hemoglobin (HbA1c), body weight (BW).
After 1 week of acclimation, the IVGTT baseline before administration was measured, and the animals were grouped according to the insulin and blood glucose results of the IVGTT. The detailed information of treatment was as follows:
IVGTT was started after 2 hours post of compound dosing. Blood were collected-at −15 min, 0 min (before sugar administration), and 2, 5, 7, 10, 20, and 30 min after sugar administration. And the blood glucose level were measured.
Data was analyzed by Graphpad Prism 6 and the statistical method was one-way ANOVA Dunnett's test. Compared with the vehicle group, p<0.05 was considered significant difference. * means p<0.05, ** means p<0.01, *** means p<0.001.

GLP-1R = GLP-1R (Homo sapiens, UniProt P43220); assay: Agonist activity on GLP-1R, HTRF cAMP detection in stably transfected GLP-1R/HEK293 cells; type: cell-based; settings: for EC50: 30 min incubation; for Max activity: relative to top concentration of reference GLP-1(7-37)
h-GLP1-R C57BL6J mice = assay: Intraperitoneal glucose tolerance (IPGTT) test in h-GLP1-R C57BL6J mice; type: in vivo
Experimental: The compounds to be tested were dissolved in 10% Solutol HS15+90% Saline, and vortexed by ultrasonic to dissolve.
Male SPF h-GLP1-R C57BL6J mice, 6-9 weeks old, weighing 20 g-25 g.
Upon arrival, animals were acclimated for 7 days before experiments. The body weight and random blood sugar of the animals were measured one day before administration. Animals were divided into 4 groups based on body weight and random blood glucose.
Mice were overnight fasted before IPGTT. Baseline fasting blood glucose and insulin level were measured before vehicle or compound dosing. 30 min post of compound dosing, glucose were injected intraperitoneally (2 g/kg, 10 ml/kg). Blood glucose levels were measured at −30, 0, 15, 30, 60, 120 min. Plasma 15 ul were collected at 0 and 15 min for insulin analysis by Rat/Mouse Insulin Elisa Kit.
AUC0-120min was the area under the blood glucose-time curve. Insulin change was the difference between 15 min and 0 min plasma insulin concentration. Statistical analysis of data was performed with Graphpad Prism 6, and the statistical method was one-way ANOVA Dunnett test. Compared with the vehicle group, p<0.05 was considered a significant difference. * means p<0.05, ** means p<0.01, *** means p<0.001.

[2] = Pharmacokinetic study in mice; type: in vivo, CD-1 mice; settings: for clearance rate compared with PF-06882961 / exposure compared with PF-06882961: mice; for half-life: read-out: T½ (converted); for Vd: read-out: Vdss
Experimental: The pharmacokinetic properties of some compounds of the present invention were evaluated in mice pharmacokinetic experiments. SPF male CD-1 mice from Beijing Vital River Laboratory Animal Technology Co., Ltd were used with 6 mice in each group. Compounds were dissolved in 10% solutol/90% saline. A single intravenous administration was given at a dose of 1 mg/kg in a volume of 1 mL/kg. A single intragastric administration was given at a dose of 5 mg/kg in a volume of 1 mL/kg. Animals were fasted overnight prior to the administration and resumed feeding 4 hours after administration, ad libitum to water. Blood was collected at 0.0830, 0.25, 0.5, 1, 2, 4, 6, 8 and 24 hours after dosing. About […] of whole blood was collected from the saphenous vein of animals and placed in an EDTA-K2 anticoagulation tube. The samples were centrifuged at 4° C. and 4200 rpm for 5 min, and the plasma was transferred into a centrifuge tube and stored at −80° C. until analysis. For plasma sample analysis, the test compounds and internal standards (Labetalol & tolbutamide & Verapamil & dexamethasone & glyburide & Celecoxib) were extracted from mice plasma by protein precipitation method with acetonitrile, and the extracts were analyzed by LC/MS/MS. The measured plasma concentration-time data of individual animals were analyzed with the non-compartmental model of Phoenix WinNonlin 7.0 (Pharsight, USA) software, and the pharmacokinetic parameters of mice were obtained as follows: maximum (peak) plasma drug concentration Cmax; Peak time Tmax; half-life T1/2 and area under the plasma concentration-time curve extrapolated to infinity AUC0-inf.

[3] = cynomolgus monkey, plasma, male cynomolgus monkeys, 1 mg/kg iv
[4] = cynomolgus monkey, plasma, male cynomolgus monkeys, 1 mg/kg iv, read-out: AUC0-inf
[5] = cynomolgus monkey, plasma, male cynomolgus monkeys, 5 mg/kg po, read-out: AUC0-inf
[6] = cynomolgus monkey, plasma, male cynomolgus monkeys, 5 mg/kg po, read-out: Cmax
[7] = cynomolgus monkey, plasma, male cynomolgus monkeys, 5 mg/kg po
[8] = male cynomolgus monkeys, 5 mg/kg po
[9] = single oral dose of 100 mg/kg, IVGTT 2 hours after dosing
[10] = mouse, plasma, male CD-1 mice, 1 mg/kg iv
[11] = mouse, plasma, male CD-1 mice, 1 mg/kg iv, read-out: AUC0-inf
[12] = mouse, plasma, male CD-1 mice, 5 mg/kg po, read-out: AUC0-inf
[13] = mouse, plasma, male CD-1 mice, 5 mg/kg po, read-out: Cmax
[14] = mouse, plasma, male CD-1 mice, 5 mg/kg po
[15] = male cynomolgus monkeys, 1 mg/kg iv

GLP-1R, sequence (P43220 24-463): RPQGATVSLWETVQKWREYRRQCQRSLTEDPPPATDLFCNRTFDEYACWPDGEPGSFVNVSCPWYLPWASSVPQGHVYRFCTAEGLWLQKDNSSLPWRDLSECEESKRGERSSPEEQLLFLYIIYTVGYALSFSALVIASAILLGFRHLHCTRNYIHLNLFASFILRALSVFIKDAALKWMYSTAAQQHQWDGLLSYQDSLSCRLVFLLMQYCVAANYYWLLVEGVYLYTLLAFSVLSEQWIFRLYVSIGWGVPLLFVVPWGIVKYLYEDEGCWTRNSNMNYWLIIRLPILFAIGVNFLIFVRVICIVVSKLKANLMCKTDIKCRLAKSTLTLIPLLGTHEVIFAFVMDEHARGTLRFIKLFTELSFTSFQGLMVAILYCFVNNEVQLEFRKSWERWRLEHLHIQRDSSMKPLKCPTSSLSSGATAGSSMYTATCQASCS

Row | SMILES | clearance [1, 3] | AUC(0-inf) [1, 4] | half-life [1, 3] | Vd [1, 3] | AUC(0-inf) [1, 5] | Cmax [1, 6] | half-life [1, 7] | F [1, 8] | clearance rate compared with PF-06882961 [1] | exposure compared with PF-06882961 [1] | half-life compared with PF-06882961 [1] | effect on blood glucose compared with PF-06882961 (cynomolgus monkeys) | blood glucose level in IVGTT (cynomolgus monkeys; [9]) | EC50 (GLP-1R) | Max activity (GLP-1R) | F ([2]; male CD-1 mice, 5 mg/kg po) | clearance rate compared with PF-06882961 [2] | exposure compared with PF-06882961 [2] | clearance [2, 10] | AUC(0-inf) [2, 11] | other results
1 | N#Cc1ccc(OCc2cccc(OC3CCN(Cc4nc5ccc(C(=O)O)cc5n4C[C@@H]4CCO4)CC3)n2)c(F)c1 [Compound 55, (S)-2-((4-((6-((4-cyano-2-fluorophenoxy)methyl)pyridin-2-yl)oxy)piperidin-1-yl)methyl)-1-(oxetan-2-ylmethyl)-1H-benzo[d]imidazole-6-carboxylic acid] | 12 mL/min/kg | 1420 ng·h/mL | 2.2 h | 0.4 L/kg | 614 ng·h/mL | 214 ng/mL | 5.4 h | 8.6% | lower clearance rates | higher exposure | greater | equivalent | significantly lower the blood glucose level | 0.149 nM | 111.5% | 32.7% | lower clearance rates | higher exposure | 26.2 mL/min/kg | 637 ng·h/mL | Insulin change (15 min minus 0 min plasma insulin) (h-GLP1-R C57BL6J mice; 0.3 mpk po): significantly increase insulin secretion; AUC0-120min (area under the blood glucose-time curve) (h-GLP1-R C57BL6J mice; 0.3 mpk po, compared with the vehicle group): significant difference compared with the vehicle group; blood glucose during IPGTT (h-GLP1-R C57BL6J mice; single oral dose 0.3 mg/kg, glucose 2 g/kg ip 30 min after dosing): significantly reduced the blood glucose; half-life [2, 10]: 1.5 h; Vd [2, 10]: 1.3 L/kg; AUC(0-inf) [2, 12]: 1040 ng·h/mL; Cmax [2, 13]: 483 ng/mL; half-life [2, 14]: 1.7 h
2 | O=C(O)c1ccc2nc(CN3CCC(Oc4cccc(COc5ccc(Cl)cc5F)n4)CC3)n(C[C@@H]3CCO3)c2c1 [Compound 49, (S)-2-((4-((6-((4-chloro-2-fluorophenoxy)methyl)pyridin-2-yl)oxy)piperidin-1-yl)methyl)-1-(oxetan-2-ylmethyl)-1H-benzo[d]imidazole-6-carboxylic acid] | 7.26 mL/min/kg | 2380 ng·h/mL | 1.34 h | 0.29 L/kg | 1240 ng·h/mL | 235 ng/mL | 4.01 h | 10.4% | lower clearance rates | higher exposure | greater | slightly more effective | significantly lower the blood glucose level | 0.193 nM | 129.3% | 20.7% | lower clearance rates | higher exposure | 12 mL/min/kg | 1350 ng·h/mL | blood glucose level in IVGTT (cynomolgus monkeys; 60 mg/kg po dose group): significant hypoglycemic effect; half-life [2, 10]: 1 h; Vd [2, 10]: 1 L/kg; AUC(0-inf) [2, 12]: 1760 ng·h/mL; Cmax [2, 13]: 515 ng/mL; half-life [2, 14]: 3.2 h
3 | N#Cc1ccc(COc2cccc(C3CCN(Cc4nc5ccc(C(=O)O)cc5n4C[C@@H]4CCO4)CC3)n2)c(F)c1 [PF-06882961, reference compound] | – | – | – | – | – | – | – | 5.9% | – | – | – | – | significantly lower the blood glucose level | – | – | 19.8% | – | – | – | – | AUC(0-inf) [1, 15]: 1167 ng·h/mL; Cl [1, 15]: 14.4 mL/min/kg; T½ [1, 15]: 1.1 h; Vdss [1, 15]: 0.3 L/kg; AUC(0-inf) [1, 8]: 344 ng·h/mL; Cmax [1, 8]: 58.8 ng/mL; T½ [1, 8]: 2.8 h; AUC(0-inf) ([2]; male CD-1 mice, 1 mg/kg iv): 370 ng·h/mL; Cl ([2]; male CD-1 mice, 1 mg/kg iv): 45.1 mL/min/kg; T½ ([2]; male CD-1 mice, 1 mg/kg iv): 0.3 h; Vdss ([2]; male CD-1 mice, 1 mg/kg iv): 1 L/kg; AUC(0-inf) ([2]; male CD-1 mice, 5 mg/kg po): 366 ng·h/mL; Cmax ([2]; male CD-1 mice, 5 mg/kg po): 299 ng/mL; T½ ([2]; male CD-1 mice, 5 mg/kg po): 2.0 h
